Consider seven compounds from ChEMBL document CHEMBL1131056, “Rational design of antitumor prostaglandins with high biological stability” (J Med Chem, 1998).

Structures are written as SMILES. In brackets after ≈: the same amount, converted by molar mass.

The test system of one assay is Colon 26. In words: Antiproliferative Activity against colon 26 cancer cells. Format: functional, cell-based. The note with it: Mus musculus.
As usually defined, the IC50 is the point on the concentration scale where inhibition reaches its midpoint. Low readings indicate higher potency, high ones lower potency. Take `CCCCC[C@H](O)/C=C/[C@H]1C=CC(=O)/C1=C/CCCCCC(=O)O`: 0.57 µg/mL (≈ 1.7 µM) corresponded to half-maximal inhibition (IC50). Same read-out and setting: to `CCCCCC/C=C/[C@@H]1C=CC(=O)/C1=C/CCCCCC(=O)O` belongs 0.23 µg/mL (≈ 0.722 µM); to `CCCCC[C@@H](O)/C=C/[C@@H]1C=CC(=O)/C1=C/CCCCCC(=O)O`, 0.5 µg/mL (≈ 1.49 µM). Same read-out and setting: the same measure for `CCCCC[C@H](O)/C=C/[C@@H]1C=CC(=O)/C1=C/CCCCCC(=O)O`: 0.35 µg/mL (≈ 1.05 µM).

The next assay has as its system A 172. As to the kind of experiment: Growth inhibition time for A172 Human Glioma cell growth at concentration 5 uM. Format: functional.
Conditions: not given
Take `CCCCC[C@@H](O)/C=C/[C@@H]1C=CC(=O)/C1=C/CCCCCC(=O)OC`: the Inhibition period was >72 h. Still for that read-out and setting: to `CCCCC[C@H](O)/C=C/[C@H]1C=CC(=O)/C1=C/CCCCCC(=O)OC` belongs <48 h; to `CCCCC[C@H](O)/C=C/[C@@H]1C=CC(=O)/C1=C/CCCCCC(=O)OC`, >72 h.
